According to ChEMBL document CHEMBL2375291, “Discovery of a series of novel 5H-pyrrolo[2,3-b]pyrazine-2-phenyl ethers, as potent JAK3 kinase inhibitors” (Bioorg Med Chem Lett, 2013):

Molecular target: T1, Tyrosine-protein kinase JAK3 (Homo sapiens, UniProt P52333)
T1 sequence (P52333 whole entry): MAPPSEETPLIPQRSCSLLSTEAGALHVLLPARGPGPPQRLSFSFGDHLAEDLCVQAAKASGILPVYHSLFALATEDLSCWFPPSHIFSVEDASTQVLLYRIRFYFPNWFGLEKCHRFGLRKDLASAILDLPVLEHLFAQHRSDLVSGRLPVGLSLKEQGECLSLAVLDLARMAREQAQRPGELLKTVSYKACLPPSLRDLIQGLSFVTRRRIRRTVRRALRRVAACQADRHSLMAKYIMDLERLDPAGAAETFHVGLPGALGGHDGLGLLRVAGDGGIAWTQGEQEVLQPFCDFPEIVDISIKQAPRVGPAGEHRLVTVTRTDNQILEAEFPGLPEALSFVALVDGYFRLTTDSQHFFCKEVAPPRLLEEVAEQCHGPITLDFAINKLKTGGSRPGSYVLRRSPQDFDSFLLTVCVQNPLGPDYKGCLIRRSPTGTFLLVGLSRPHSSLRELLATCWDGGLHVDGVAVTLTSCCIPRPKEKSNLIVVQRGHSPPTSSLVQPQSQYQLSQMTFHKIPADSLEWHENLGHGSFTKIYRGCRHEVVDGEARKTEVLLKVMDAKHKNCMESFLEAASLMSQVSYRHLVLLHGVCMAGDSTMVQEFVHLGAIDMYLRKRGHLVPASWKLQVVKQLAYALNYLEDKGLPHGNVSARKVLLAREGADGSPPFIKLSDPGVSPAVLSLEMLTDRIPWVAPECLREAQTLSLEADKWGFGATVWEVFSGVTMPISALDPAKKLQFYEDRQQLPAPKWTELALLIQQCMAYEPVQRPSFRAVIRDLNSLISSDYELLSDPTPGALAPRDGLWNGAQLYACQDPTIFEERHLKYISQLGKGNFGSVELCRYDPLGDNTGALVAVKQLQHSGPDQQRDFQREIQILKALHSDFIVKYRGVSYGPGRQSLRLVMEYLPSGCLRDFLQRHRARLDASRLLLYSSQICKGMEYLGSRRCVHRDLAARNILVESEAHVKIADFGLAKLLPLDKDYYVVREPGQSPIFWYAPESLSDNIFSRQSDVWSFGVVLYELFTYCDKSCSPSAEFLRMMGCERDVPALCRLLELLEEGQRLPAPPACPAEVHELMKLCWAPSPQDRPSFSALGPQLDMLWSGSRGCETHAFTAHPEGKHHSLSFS

| IC50 | Compound |
| --- | --- |
| 5 nM | CC(=O)N[C@@H]1CCc2ccc(Oc3cnc4[nH]cc(C(=O)N[C@@H](C(=O)N5CC(C#N)C5)C5CC5)c4n3)cc21 |
| 112 nM | CC(=O)N[C@@H]1CCc2ccc(Oc3cnc4[nH]cc(C(=O)N[C@H](C)C(=O)N5CC(C#N)C5)c4n3)cc21 |

Molecular target: Tyrosine-protein kinase JAK1 (Homo sapiens, UniProt P23458)

| IC50 | Compound |
| --- | --- |
| 4390 nM | CC(=O)N[C@H]1CCc2ccc(Oc3cnc4[nH]cc(C(=O)NC(C)C)c4n3)cc21 |
| 8220 nM | COc1cc(OC)cc(Oc2cnc3[nH]cc(C(=O)NC(C)C)c3n2)c1 |
| 5090 nM | Cc1ccccc1Oc1cnc2[nH]cc(C(=O)NC(C)C)c2n1 |
| 6300 nM | CC(=O)N[C@@H]1CCc2ccc(Oc3cnc4[nH]cc(C(=O)NC(C)C)c4n3)cc21 |
| 863 nM | CC(=O)N[C@@H]1CCc2ccc(Oc3cnc4[nH]cc(C(=O)N[C@@H](C)C5CC5)c4n3)cc21 |
| 3320 nM | CC(C)NC(=O)c1c[nH]c2ncc(Oc3ccc4c(c3)CCC4)nc12 |
| 3190 nM | CC(C)NC(=O)c1c[nH]c2ncc(Oc3cccc(C#N)c3)nc12 |
| 840 nM | CC(C)NC(=O)c1c[nH]c2ncc(Oc3ccccc3)nc12 |
| 4160 nM | CCc1cccc(Oc2cnc3[nH]cc(C(=O)NC(C)C)c3n2)c1 |
| 2150 nM | Cc1cccc(Oc2cnc3[nH]cc(C(=O)NC(C)C)c3n2)c1 |
| 262 nM | CC(=O)N[C@@H]1CCc2ccc(Oc3cnc4[nH]cc(C(=O)N[C@@H](C(=O)N5CC(C#N)C5)C5CC5)c4n3)cc21 |
| 220 nM | CC(NC(=O)c1c[nH]c2ncc(Oc3ccccc3)nc12)C1CC1 (stereo not drawn) |
| 863 nM | CC(=O)N[C@@H]1CCc2ccc(Oc3cnc4[nH]cc(C(=O)N[C@@H](C(=O)N5CC(C#N)C5)C(C)(C)C)c4n3)cc21 |
| 11600 nM | CC(=O)N[C@@H]1CCc2ccc(Oc3cnc4[nH]cc(C(=O)N[C@H](C)C(=O)N5CC(C#N)C5)c4n3)cc21 |
| 2080 nM | CC(=O)N[C@@H]1CCc2ccc(Oc3cnc4[nH]cc(C(=O)N[C@H](C)C5CC5)c4n3)cc21 |
| 3470 nM | CC(C)NC(=O)c1c[nH]c2ncc(Oc3ccc(C#N)cc3)nc12 |
